Experimental data published in paper PMC12118597 (Science Advances, 2025).
Values joined by “and” are separate entries in the source; they are usually repeats but may differ in a detail not shown here. Identical values can stand only once. Like-named read-outs stand apart in the source and are kept apart here.

Columns and labels:
human macrodomain Targ1 = target: T1, human macrodomain Targ1 (Homo sapiens, UniProt Q9Y530); test: HTRF peptide displacement assay, human Targ1; format: binding
T1 construct: Targ1_HTRF; HTRF assay; pET22b(+); His6, TEV; 1-153; made in house
T1 sequence (Q9Y530 with tags, fused parts or gaps): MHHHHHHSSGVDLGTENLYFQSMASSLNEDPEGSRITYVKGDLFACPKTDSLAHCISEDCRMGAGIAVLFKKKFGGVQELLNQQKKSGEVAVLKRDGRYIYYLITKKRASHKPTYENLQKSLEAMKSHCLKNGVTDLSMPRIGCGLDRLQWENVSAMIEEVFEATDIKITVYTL

Microsomal stability = format: in vitro ADME, mouse; details: for Mouse microsome T1/2: 1 μM compound, 0.5 mg/ml microsome protein; for CLint (mouse): intrinsic clearance from t1/2
Procedure: The assay was carried out in 96-well plates at 37°C. Reaction mixtures (25 μl) contained a final concentration of 1 μM compound, liver microsome protein (0.5 mg/ml), and 1 mM NADPH (reduced form of nicotinamide adenine dinucleotide phosphate) and/or 1 mM uridine diphosphate glucuronic acid (with alamethicin) in 100 mM potassium phosphate (pH 7.4) with 3 mM MgCl2. After 0, 15, 30, and 60 min, 150 μl of quench solution (100% acetonitrile with 0.1% formic acid) with an internal standard was transferred to each well. Reactions containing the same components, except NADPH, were prepared as the negative control.
The extent of metabolism was calculated as the disappearance of compounds compared to the 0-min time incubation.

Kinetic solubility = details: for Kinetic solubility (uM), mean: DMSO concentration 5%; for Mean solubility: phosphate-buffered saline pH 7.4, triplicate
Caco-2 cells = tested on: Caco-2 cells
Procedure: Caco-2 cell plates were obtained commercially and were maintained for 21 days at 37°C with 5% CO2. Cells were washed with Hank’s balanced salt solution with 5 mM Hepes for 30 min before starting the experiment. Test compound solutions are prepared by diluting DMSO stock into Hank’s balanced salt solution buffer, resulting in a final DMSO concentration of 0.1%. Before the assay, cell monolayer integrity was verified by […] electrical resistance to ensure that wells have resistance above the acceptance cutoff (1 kilohm). Transport experiments were initiated by adding test compounds to the apical (75 μl) or basal (250 μl) side. Transport plates were incubated at 37°C in a humidified incubator with 5% CO2. Samples were taken from the donor and acceptor compartments after 1 hour and analyzed by liquid chromatography–tandem mass spectrometry (LC-MS/MS) using an AB Sciex API 4000 instrument coupled to a Shimadzu LC-20 AD LC Pump system. Samples were separated using a Waters Atlantis T3 dC18 reverse phase HPLC column (20 mm by 2.1 mm) at a flow rate of 0.5 ml/min. The mobile phase consisted of 0.1% formic acid in acetonitrile (solvent A) and 0.1% formic acid in water (solvent B).
Apparent permeability (Papp) values were calculated using the following equation Papp=(dQ/dt)/A/C0 where dQ/dt is the initial rate of compound transport across the cell monolayer, A is the surface area of the filter membrane, and C0 is the initial concentration of the test compound, calculated for each direction using a four-point calibration curve by LC-MS/MS.
The net flux ratio between the two directional transports was calculated by the following equation Ratio=PappB−A/PappA−B where PappB-A and PappA-B represent the apparent permeability of compounds from the basal-to-apical and apical-to-basal sides of the cellular monolayer, respectively. Recovery was calculated on the basis of the compound concentration at the end of the experiment compared to that at the beginning of the experiment, adjusted for volumes.

[1] = target: T2, human macrodomain MacroD2 (Homo sapiens, UniProt A1Z1Q3); test: HTRF peptide displacement assay, human MacroD2; format: binding
T2 construct: MacroD2_HTRF; HTRF assay; pET22b(+); His6, TEV, Avi; 2-425; made in house
T2 sequence (A1Z1Q3 with tags, fused parts or gaps): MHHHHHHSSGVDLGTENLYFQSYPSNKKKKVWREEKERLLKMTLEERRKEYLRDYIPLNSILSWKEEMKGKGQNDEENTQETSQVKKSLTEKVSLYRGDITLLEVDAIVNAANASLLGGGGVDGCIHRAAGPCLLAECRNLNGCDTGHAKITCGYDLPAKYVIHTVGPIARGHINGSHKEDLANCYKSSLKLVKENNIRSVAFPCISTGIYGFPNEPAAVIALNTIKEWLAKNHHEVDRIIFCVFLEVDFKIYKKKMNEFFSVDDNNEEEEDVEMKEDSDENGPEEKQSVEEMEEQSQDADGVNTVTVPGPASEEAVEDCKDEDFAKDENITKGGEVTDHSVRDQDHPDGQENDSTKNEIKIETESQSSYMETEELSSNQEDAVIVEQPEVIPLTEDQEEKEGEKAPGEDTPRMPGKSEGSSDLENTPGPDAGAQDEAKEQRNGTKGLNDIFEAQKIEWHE

[2] = target: T3, SARS-CoV-2 NSP3 macrodomain (Mac1) (Severe acute respiratory syndrome coronavirus 2, UniProt P0DTD1); format: binding; details: for 1-BDC: PanDDA background density correction factor; for Total number of conformations: ligand conformations modeled in the crystal structure; for 2*(1-BDC) (%): occupancy estimate from PanDDA; for Refined ligand occupancy (%): refined crystallographic occupancy
[3] = target: T3, SARS-CoV-2 NSP3 macrodomain (Mac1); test: biochemical; format: binding
Mac1 = details: cited from earlier work
[4] = Mouse microsome stability assay
[5] = Caco-2 permeability assay, compound concentration 5
[6] = crystal soak 10 mM, P43 crystal form
[7] = HTRF binding curve, SARS-CoV-2 Mac1
[8] = SARS CoV-2 macrodomain HTRF assay, dose-response
[9] = Caco-2, compound concentration 5

Nc1ncnc2c1ncn2[C@@H]1O[C@H](COP(=O)(O)OP(=O)(O)OC[C@H]2O[C@@H](O)[C@H](O)[C@@H]2O)[C@@H](O)[C@H]1O.[Na].[Na] [ADP-ribose, reference compound]
Hill slope (human macrodomain Targ1; HTRF binding curve, Targ1): 1.5

O=C(Nc1ccc(C(=O)N[C@H]2c3cccc(O)c3C[C@H]2C(=O)O)cc1)NC1CC1 [AVI-92, reference compound]
Mouse microsome T1/2 (Microsomal stability): > 120 min | CLint (mouse) (µl/min/mg protein), mean (Microsomal stability; [4]): <11.6 µl/min/mg protein | T1/2 (min), mean (Microsomal stability; [4]): >120 min | CLint (mouse) (Microsomal stability): < 11.6 µl/min/mg protein | Kinetic solubility (uM), mean (Kinetic solubility): 524 µM | Mean solubility (Kinetic solubility): 524 µM | Papp, A-B (x10-6 cm/s), mean (Caco-2 cells; [5]): 0.04 x10-6 cm/s | Papp, B-A (x10-6 cm/s), mean (Caco-2 cells; [5]): 1.7 x10-6 cm/s | Ratio (B-A/A-B) (Caco-2 cells; [5]): 42.50 | Recover Rate (%) (Caco-2 cells; [5]): 91% | Caco-2 ratio B-A/A-B (Caco-2 cells; net flux ratio): 40.7

O=C1CCCN1Nc1ncnc2[nH]c3cc(F)ccc3c12 [AVI-219, reference compound]
T1/2 (min), mean (Microsomal stability; [4]): 26.1 min | CLint (mouse) (Microsomal stability): 53.1 µl/min/mg protein | Kinetic solubility (uM), mean (Kinetic solubility): 127 µM | Mean solubility (Kinetic solubility): 127 µM | Recover Rate (%) (Caco-2 cells; [5]): 98%

CC(C)(O)[C@H]1CCCN1c1ncnc2[nH]ccc12 [AVI-607, 2-[(2R)-1-{7H-pyrrolo[2,3-d]pyrimidin-4-yl}pyrrolidin-2-yl]propan-2-ol]
T1/2 (min), mean (Microsomal stability; [4]): 19 min | CLint (mouse) (Microsomal stability): 73 µl/min/mg protein | Kinetic solubility (uM), mean (Kinetic solubility): 518 µM | Mean solubility (Kinetic solubility): 518 µM | showed binding to the human macrodomain MacroD2 ([1]; result in words): none | Recover Rate (%) (Caco-2 cells; [5]): 93% | showed binding to the human macrodomain Targ1 (human macrodomain Targ1; result in words): none | Occupancy difference (refined_occupancy - 2*(1-BDC)) [2]: 5 | 1-BDC [2]: 0.44 | PanDDA run, overall: Modeling comment ([2]; crystal soak 10 mM): High occupancy, use manual refinement | PanDDA run, overall: Hit [2, 6]: TRUE | PanDDA run, DMSO background map: 1-BDC ([2]; crystal soak 10 mM): 0.42 and 0.44 | PanDDA run, DMSO background map: Hit ([2]; crystal soak 10 mM): TRUE | Total number of conformations [2]: 1 | X-ray crystal structure ([2]; ligand-bound crystal structure obtained (TRUE)): TRUE | 2*(1-BDC) (%) [2]: 88% | Refined ligand occupancy (%) [2]: 93% | Binding site ([2]; site occupied in X-ray crystal structure): Adenosine | Hill slope [3, 7]: 1.5 | Hill slope [3, 8]: 1.5 | inhibition at 200 µM ([3]; SARS CoV-2 macrodomain HTRF assay, single dose concentration 200 μM, read-out: Average % competition): 100% | inhibition at 200 µM ([3]; compound at 200 μM, mean of three to four technical replicates, read-out: % competition at 200 μM (preliminary HTRF screen)): 100%

CC(c1ccccc1)C(CO)Nc1ncnc2[nH]ccc12 (stereo not drawn) [AVI-3669]
T1/2 (min), mean (Microsomal stability; [4]): 8.3 min | CLint (mouse) (Microsomal stability): 166.4 µl/min/mg protein | Kinetic solubility (uM), mean (Kinetic solubility): 529 µM | Mean solubility (Kinetic solubility): 529 µM | showed binding to the human macrodomain MacroD2 ([1]; result in words): none | Recover Rate (%) (Caco-2 cells; [9]): 93% | showed binding to the human macrodomain Targ1 (human macrodomain Targ1; result in words): none | Occupancy difference (refined_occupancy - 2*(1-BDC)) [2]: 0 | 1-BDC [2]: 0.14 | X-ray crystal structure ([2]; TRUE = crystal structure with ligand obtained): TRUE | PanDDA run, overall: Hit [2, 6]: TRUE | PanDDA run, overall: Modeled [2, 6]: TRUE | PanDDA run, DMSO background map: 1-BDC ([2]; crystal soak 10 mM): 0.14 | PanDDA run, DMSO background map: Hit ([2]; crystal soak 10 mM): TRUE | Total number of conformations [2]: 1 | 2*(1-BDC) (%) [2]: 28% | Refined ligand occupancy (%) [2]: 28% | Binding site ([2]; site of ligand in X-ray crystal structure): Adenosine | Hill slope [3, 7]: 1.2 | Hill slope [3, 8]: 1.2

C[C@H]1CCCN(c2ncnc3[nH]ccc23)[C@H]1CO [AVI-3716]
Mouse microsome T1/2 (Microsomal stability): 31.2 min | CLint (mouse) (Microsomal stability): 44.4 µl/min/mg protein | Kinetic solubility (uM), mean (Kinetic solubility): 523 µM | Mean solubility (Kinetic solubility): 523 µM | showed binding to the human macrodomain MacroD2 ([1]; result in words): none | Recover Rate (%) (Caco-2 cells; [5]): 104% | showed binding to the human macrodomain Targ1 (human macrodomain Targ1; result in words): none

Cc1c[nH]c2ncnc(NCC3(O)CCCCC3)c12 [AVI-3761, 1-(((5-methyl-7H-pyrrolo[2,3-d]pyrimidin-4-yl)amino)methyl)cyclohexan-1-ol]
T1/2 (min), mean (Microsomal stability; [4]): 7.49 min | CLint (mouse) (Microsomal stability): 185 µl/min/mg protein | showed binding to the human macrodomain MacroD2 [1]: none | Recover Rate (%) (Caco-2 cells; [9]): 86% | showed binding to the human macrodomain Targ1 (human macrodomain Targ1): none

CCNC(=O)Nc1cccc2c1[nH]c1ncnc(NN3C(=O)CCC3(C)C)c12 [AVI-4206]
potency (in words) (Mac1): double-digit nanomolar
